Laboratory results from PMC6348054 (Bioorganic & medicinal chemistry letters, 2018).

System: 20S proteasome core particle (20S CP)
Assay: FRET peptide hydrolysis assay, percent stimulation over basal
Format: biochemical, Homo sapiens

Stimulation: 160%
Structure (SMILES): CCCCC/C=C\C/C=C\CCCCCCCC(=O)O [compound 15]
